According to paper PMC7747594, “Protease-activated receptor-2 ligands reveal orthosteric and allosteric mechanisms of receptor inhibition” (Communications Biology, 2020):
Where two headings read alike, the source gives them in different places.

Columns and labels:
hPAR2 [1] = biological target: T1, hPAR2 (Homo sapiens, UniProt P55085); experiment: Radiolabelled competition binding assay against [^3H]-GB110 on HEKexpi293F membranes; design: expressed in transfected cells
T1 sequence (P55085 26-397): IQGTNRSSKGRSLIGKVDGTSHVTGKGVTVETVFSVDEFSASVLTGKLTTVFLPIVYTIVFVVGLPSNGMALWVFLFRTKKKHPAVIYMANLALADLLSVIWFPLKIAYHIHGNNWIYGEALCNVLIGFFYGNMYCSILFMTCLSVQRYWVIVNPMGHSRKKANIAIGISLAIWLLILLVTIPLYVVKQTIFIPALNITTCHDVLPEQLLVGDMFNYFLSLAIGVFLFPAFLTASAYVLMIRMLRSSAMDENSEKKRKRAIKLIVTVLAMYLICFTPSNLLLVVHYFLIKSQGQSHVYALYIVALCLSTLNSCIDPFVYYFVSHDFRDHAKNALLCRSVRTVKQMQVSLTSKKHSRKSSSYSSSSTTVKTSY
Description: The reaction was then filtered through 0.5% PEI-coated filter plates using a BiomekFX. The filter plate was then dried for 1 h at 50 °C. Scintillation fluid was added to each well, before reading the plate in a Microbeta reader.
(§1) Binding data were analysed using the One site – Fit Ki model in GraphPad Prism 8 (GraphPad Software) to determine binding affinity. Pharmacology in vitro potency data was analysed with a 4-parameter logistic fit using the equation y = Bottom + (Top − Bottom)/[…] where y is the response, x is the 10-logarithm of the drug concentration, Bottom is no response and Top is full response in GraphPad Prism 8 or Genedata Screener (Genedata). pEC50 and pIC50 data are presented as mean ± standard error of the mean (s.e.m.) derived from the number of independent experiments stated. Schild slope analysis was calculated using Graphpad Prism 8 Gaddum/Schild EC50 global fitting (shared model parameters between all data sets) competitive model. The most rigorous method for quantifying agonist-antagonist interactions is to globally fit the Gaddum/Shild model to all agonist dose–response curves. Schild slope quantifies the shifts in agonist response in the presence of antagonist, a Schild slope of 1 indicates the antagonist is competitive and extra-sum-of-squares F-test (p < 0.05) was used to compare the calculated Schild slope against a hypothetical Schild slope of 1. […] The relative activity was calculated using (EmaxEC50’)/(Emax’EC50) with the Hill slope help constant at 1. EC50’ and Emax’ denote the EC50 and Emax in the absence of allosteric modulator, while EC50 and Emax denote those measured in the presence of allosteric modulator. When the Hill slope = 1, the relative activity plot approaches an asymptote corresponding to the estimate of the γ value.

hPAR2 [2] = biological target: T1, hPAR2; experiment: pERK1/2 HTRF assay, inhibition of SLIGRL-NH2 in U2OS-hPAR2 cells; format: cell-based
Description: Phosphorylation of ERK1/2 was measured in U2OS-hPAR2 cells using Phospho-ERK1/2 (Thr202/Tyr204) assay kit (64ERKPEH Cisbio) and the 2 plate manufacturer’s protocol with the following modifications. Cells were seeded in McCoy’s 5A media containing 10% FBS at 15,000 cells per well in 384-well plates and incubated overnight at 37 °C, 5% CO2. Antagonist compounds (30 µM–1 nM) were incubated with the cells for 30 min prior to the addition of agonist SLIGRL-NH2 (10 µM) at EC80 and further incubation for 5 min at 37 °C. The supernatant was removed from the wells and lysis buffer was added to the cells and incubated with shaking at room temperature for 30 min. The cell lysate was transferred into a small-volume 384-well plate containing detection antibodies and incubated for 4 h at room temperature in the dark. Plates were read for HTRF signal on PHERAstar (BMG LabTech). In addition, phosphorylation of ERK1/2 was measured in CHO-hPAR2 using AlphaLISA SureFire Ultra pERK1/2 (Thr202/Tyr204) (Perkin Elmer). Cells were seeded at a density of 2000 cells per well in a 384-well proxiplate and incubated overnight. […] After incubation, cell lysis buffer was added with shaking for 30 min. Antibodies and beads were added and incubated for 4 h at room temperature. AlphaLISA signal was measured using a PHERAstar (BMG LabTech).
as §1, with “The most rigorous method for quantifying agonist-antagonist interactions is to globally fit the Gaddum/Shild model to all agonist dose–response curves.” left out

hPAR2 [3] = biological target: T1, hPAR2; experiment: Ca^2+ flux assay, inhibition of trypsin activation in 1321N1-hPAR2 cells (with 1 µM Vorapaxar); format: cell-based; conditions: for shape of inhibition of trypsin-induced Ca^2+ mobilisation: 1321N1-hPAR2 cells, 1 µM Vorapaxar
hPAR2 [4] = biological target: T1, hPAR2; experiment: β-arrestin-2 recruitment assay, inhibition of SLIGRL-NH2 in U2OS-hPAR2 cells; format: cell-based
Description: β‐Arrestin-2 recruitment was measured in U2OS-hPAR2 cells using the DiscoverX assay kit, according to the manufacturer’s instructions. Briefly, cells were seeded in McCoy’s 5A media containing 10% FBS at 4000 cells per well in 384-well plates and incubated overnight at 37 °C, 5% CO2. Antagonist compounds (30 µM–1 nM) were incubated with the cells for 30 min prior to the addition of agonist SLIGRL-NH2 (10 µM) at EC80 and further incubation for 90 min at 37 °C. Working detection solution (12 µl) was then added to each well, incubated at room temperature in the dark for 60 min and the chemiluminescence signal read on the EnVision microplate reader (Perkin Elmer).
as §1, with “The most rigorous method for quantifying agonist-antagonist interactions is to globally fit the Gaddum/Shild model to all agonist dose–response curves.” left out

[5] = SLIGRL-NH2, U2OS-hPAR2, mean ± s.e.m., read-out: pERK1/2 (hPAR2) pIC50 (converted)
[6] = SLIGRL-NH2, U2OS-hPAR2, mean ± s.e.m., read-out: β-arrestin (hPAR2) pIC50 (converted)

**Q.** For `CNC(=O)[C@H]1CC[C@@H](NC(=O)[C@H](CC2CCCCC2)NC(=O)c2cn(Cc3ccccc3)nn2)c2ccccc21` [AZ2429], which remaining binding at 100 µM (hPAR2 [1]; 2 h, log [compound],M -4, individual data points, read-out: specific binding of [^3H]-GB110, Fig 2b source data) is on record?
**A.** 19.6%

**Q.** And the remaining binding at 33.3 µM (hPAR2 [1]; 2 h, log [compound],M -4.47756, individual data points, read-out: specific binding of [^3H]-GB110, Fig 2b source data)?
**A.** 10.5%

**Q.** And the remaining binding at 3.7 µM (hPAR2 [1]; 2 h, log [compound],M -5.4318, individual data points, read-out: specific binding of [^3H]-GB110, Fig 2b source data)?
**A.** 11.5%

**Q.** And the remaining binding at […] (hPAR2 [1]; 2 h, log [compound],M -5.91009, individual data points, read-out: specific binding of [^3H]-GB110, Fig 2b source data)?
**A.** 15.9%

**Q.** And the remaining binding at 0.0152 µM (hPAR2 [1]; 2 h, log [compound],M -7.81816, individual data points, read-out: specific binding of [^3H]-GB110, Fig 2b source data)?
**A.** 88%

**Q.** What about the remaining binding at 0.00508 µM (hPAR2 [1]; 2 h, log [compound],M -8.29414, individual data points, read-out: specific binding of [^3H]-GB110, Fig 2b source data) of the same compound?
**A.** 97.4%

**Q.** And the remaining binding at 0.00169 µM (hPAR2 [1]; 2 h, log [compound],M -8.77211, individual data points, read-out: specific binding of [^3H]-GB110, Fig 2b source data)?
**A.** 99.3%

**Q.** What about the remaining binding at 0.000565 µM (hPAR2 [1]; 2 h, log [compound],M -9.24795, individual data points, read-out: specific binding of [^3H]-GB110, Fig 2b source data) of the same compound?
**A.** 105%

**Q.** And the Ki (hPAR2 [1]; [3H]-GB110, earlier manuscript version quoted by reviewer, read-out: Ki)?
**A.** 63 nM

**Q.** `C[C@@H](C1CCCCC1)n1c(-c2cc3c(cc2Br)OCO3)nc2cc(C(=O)Nc3ccncc3)ccc21` [AZ2623] was tested. Which IC50 (hPAR2 [2]; [5]) did it give?
**A.** 794 nM

**Q.** What about the “shape of inhibition of trypsin-induced Ca^2+ mobilisation” value (hPAR2 [3]) of the same compound?
**A.** biphasic inhibition curves

**Q.** And the IC50 (hPAR2 [4]; [6])?
**A.** 490 nM

**Q.** `C[C@@H](C1CCCCC1)n1c(-c2cc3c(cc2Br)OCO3)nc2cc(C(=O)Nc3ccc(C#N)cc3)ccc21` [AZ3451] was tested. Which IC50 (hPAR2 [2]; [5]) did it give?
**A.** 363 nM

**Q.** And the remaining activity at 0.37 µM (hPAR2 [2]; log[compound], M -6.4318, individual data points, read-out: SLIGRL-NH2 phosphorylation of ERK1/2, antagonist response, Fig 1e source data)?
**A.** 45.7%

**Q.** What about the Ki (hPAR2 [1]; against [^3H]-GB110, HEKexpi293F membranes expressing hPAR2, mean ± s.e.m., read-out: Competition binding pKi (converted)) of the same compound?
**A.** 12.6 nM

**Q.** And the “shape of inhibition of trypsin-induced Ca^2+ mobilisation” value (hPAR2 [3])?
**A.** biphasic inhibition curves

**Q.** And the remaining activity at 0.03 µM (hPAR2 [3]; log[compound], M -7.52288, individual data points, read-out: trypsin Ca^2+ mobilisation, antagonist response, Fig 1g source data)?
**A.** 71.7%

**Q.** What about the remaining activity at 0.01 µM (hPAR2 [3]; log[compound], M -8, individual data points, read-out: trypsin Ca^2+ mobilisation, antagonist response, Fig 1g source data) of the same compound?
**A.** 68%

**Q.** What about the remaining activity at 0.003 µM (hPAR2 [3]; log[compound], M -8.52288, individual data points, read-out: trypsin Ca^2+ mobilisation, antagonist response, Fig 1g source data) of the same compound?
**A.** 73%

**Q.** And the remaining activity at 0.001 µM (hPAR2 [3]; log[compound], M -9, individual data points, read-out: trypsin Ca^2+ mobilisation, antagonist response, Fig 1g source data)?
**A.** 78.8%

**Q.** And the remaining activity at 0.0003 µM (hPAR2 [3]; log[compound], M -9.52288, individual data points, read-out: trypsin Ca^2+ mobilisation, antagonist response, Fig 1g source data)?
**A.** 82.9%

**Q.** And the remaining activity at 0.0001 µM (hPAR2 [3]; log[compound], M -10, individual data points, read-out: trypsin Ca^2+ mobilisation, antagonist response, Fig 1g source data)?
**A.** 99.7%

**Q.** What about the IC50 (hPAR2 [3]; trypsin, read-out: inhibition of trypsin activation of PAR2 signalling, biphasic, pIC50 first phase (converted)) of the same compound?
**A.** 3.16 nM

**Q.** And the IC50 (hPAR2 [3]; trypsin, read-out: inhibition of trypsin activation of PAR2 signalling, biphasic, pIC50 second phase (converted))?
**A.** 1000 nM

**Q.** What about the IC50 (hPAR2 [4]; [6]) of the same compound?
**A.** 87.1 nM

**Q.** For `CCCc1cc(F)ccc1C(O)c1ncc[nH]1` (centres unmarked) [AZ8838], which IC50 (hPAR2 [2]) is on record?
**A.** 2000 nM

**Q.** And the remaining activity at 3.33 µM (hPAR2 [2]; read-out: SLIGRL-NH2 phosphorylation of ERK1/2, antagonist response, Fig 1e source data, log[compound], M -5.47756, individual data points)?
**A.** 40.4%

**Q.** What about the Ki (hPAR2 [1]) of the same compound?
**A.** 398 nM

**Q.** What about the IC50 (hPAR2 [3]) of the same compound?
**A.** 3980 nM

**Q.** And the “shape of inhibition of trypsin-induced Ca^2+ mobilisation” value (hPAR2 [3])?
**A.** sigmoidal and monophasic

**Q.** What about the remaining activity at 1.318 µM (hPAR2 [3]; read-out: trypsin Ca^2+ mobilisation, antagonist response, Fig 1g source data, log[compound], M -5.88008, individual data points) of the same compound?
**A.** 86.9%

**Q.** What about the remaining activity at 0.1318 µM (hPAR2 [3]; read-out: trypsin Ca^2+ mobilisation, antagonist response, Fig 1g source data, log[compound], M -6.88008, individual data points) of the same compound?
**A.** 93.7%

**Q.** And the remaining activity at 0.04169 µM (hPAR2 [3]; read-out: trypsin Ca^2+ mobilisation, antagonist response, Fig 1g source data, log[compound], M -7.37997, individual data points)?
**A.** 93.1%

**Q.** What about the remaining activity at 0.01318 µM (hPAR2 [3]; read-out: trypsin Ca^2+ mobilisation, antagonist response, Fig 1g source data, log[compound], M -7.88008, individual data points) of the same compound?
**A.** 97.5%

**Q.** And the IC50 (hPAR2 [4])?
**A.** 794 nM
